The values that follow come from US20240335570A1, “FOLATE RECEPTOR-TARGETED CONJUGATES WITH BRUSH BORDER MEMBRANE ENZYME-CLEAVABLE LINKERS AND METHODS OF USE IN IMAGING AND TREATING CANCER” (PURDUE RESEARCH FOUNDATION, priority 2021, published 2024).

No end group written: not given here.

This assay concerns KB cells. The experiment in a line: Folate conjugate binding curves in KB cells by flow cytometry. The following applies: KB cells incubated 1 hour at 4° C. with increasing concentrations of conjugate, concentrations normalized via fluorescence, read-out: Kd (folate conjugate binding curve). The procedure:
KB cells were incubated for 1 hour at 4° C. with increasing concentrations of OTL38, BBM1, BBM2, or BBM3 in staining buffer, washed three times with staining buffer, and then analyzed via flow cytometry.
KB cells were incubated for 1 hour at 4° C. with increasing concentrations of OTL38, BBM1, BBM2 or BBM3 in staining buffer, washed three times with staining buffer, suspended in phosphate-buffered saline, and then analyzed via flow cytometry. Concentrations of all conjugates were normalized via fluorescence.
With `CCCCCN1c2ccc(C)cc2C(C)(C)C1CCc1cccc(CCC2N(CCCCC)c3ccc(C)cc3C2(C)C)c1Oc1ccc(CCNC(=O)CCN2C(=O)CC(SCC(NC(=O)C(CCCCN)NC(=O)[C@@H](NC(=O)C(CCCC)NC(=O)CCC(NC(=O)c3ccc(NCc4cnc5nc(N)nc(O)c5n4)cc3)C(=O)O)C(C)C)C(=O)O)C2=O)cc1` (stereo partly drawn) [BBM1], the equilibrium dissociation constant (Kd) came out at 12.3 nM. As to “BBM2: Folate dye conjugate; a peptide with the sequence M-V-K-G-Y-G-K-C (MVKGYGKC; also: folate dye conjugate (site not given here))”, the Kd came out at 29.6 nM. The figure for OTL38 [reference compound] is 6.7 nM.

As usually defined, the Kd is the concentration at which binding is half-saturated.
